Measurements: PubChem BioAssay (NCI)
Values joined by “and” are separate entries in the source; they are usually repeats but may differ in a detail not shown here. Equal entries are not always repeated.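 Briefly, cells in 96-well plates were exposed to five compound concentrations for 48 h, and endpoints were estimated by linear interpolation. Abbreviation: GI50, concentration required for 50% inhibition of growth. TGI marks complete inhibition of growth.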

Experiments:
Assay in all cases: NCI tumour cell line growth inhibition, 48 h
MCF7 breast = tested on: MCF7 breast
HS 578T breast = tested on: HS 578T breast
SF-539 CNS = tested on: SF-539 CNS
T-47D breast = tested on: T-47D breast
COLO 205 colon = tested on: COLO 205 colon
MOLT-4 leukemia = tested on: MOLT-4 leukemia
K-562 leukemia = tested on: K-562 leukemia
HOP-62 NSCLC = tested on: HOP-62 NSCLC
HCC-2998 colon = tested on: HCC-2998 colon
RXF 393 renal = tested on: RXF 393 renal
NCI/ADR-RES ovarian = tested on: NCI/ADR-RES ovarian
OVCAR-5 ovarian = tested on: OVCAR-5 ovarian
MDA-N = tested on: MDA-N
HL-60(TB) leukemia = tested on: HL-60(TB) leukemia
MALME-3M melanoma = tested on: MALME-3M melanoma
LOX IMVI melanoma = tested on: LOX IMVI melanoma
RPMI-8226 leukemia = tested on: RPMI-8226 leukemia
UACC-62 melanoma = tested on: UACC-62 melanoma
SK-MEL-28 melanoma = tested on: SK-MEL-28 melanoma
SF-295 CNS = tested on: SF-295 CNS
SNB-75 CNS = tested on: SNB-75 CNS
PC-3 prostate = tested on: PC-3 prostate
UACC-257 melanoma = tested on: UACC-257 melanoma
IGROV1 ovarian = tested on: IGROV1 ovarian
SNB-19 CNS = tested on: SNB-19 CNS
NCI-H23 lung = tested on: NCI-H23 lung
SK-OV-3 ovarian = tested on: SK-OV-3 ovarian
UO-31 renal = tested on: UO-31 renal
KM12 colon = tested on: KM12 colon
SN12C renal = tested on: SN12C renal
NCI-H522 lung = tested on: NCI-H522 lung
TK-10 renal = tested on: TK-10 renal
NCI-H226 lung = tested on: NCI-H226 lung
MDA-MB-231 breast = tested on: MDA-MB-231 breast
MDA-MB-435 = tested on: MDA-MB-435
786-0 renal = tested on: 786-0 renal
A498 renal = tested on: A498 renal
NCI-H460 lung = tested on: NCI-H460 lung
HCT-116 colon = tested on: HCT-116 colon
OVCAR-4 ovarian = tested on: OVCAR-4 ovarian
A549 NSCLC = tested on: A549 NSCLC
SK-MEL-2 melanoma = tested on: SK-MEL-2 melanoma
CCRF-CEM leukemia = tested on: CCRF-CEM leukemia
DU-145 prostate = tested on: DU-145 prostate
OVCAR-3 ovarian = tested on: OVCAR-3 ovarian
U251 CNS = tested on: U251 CNS
ACHN renal = tested on: ACHN renal
CAKI-1 renal = tested on: CAKI-1 renal
HT29 colon = tested on: HT29 colon
HCT-15 colon = tested on: HCT-15 colon
SK-MEL-5 melanoma = tested on: SK-MEL-5 melanoma
SW-620 colon = tested on: SW-620 colon
SF-268 CNS = tested on: SF-268 CNS
HOP-92 NSCLC = tested on: HOP-92 NSCLC
EKVX NSCLC = tested on: EKVX NSCLC
SR leukemia = tested on: SR leukemia
OVCAR-8 ovarian = tested on: OVCAR-8 ovarian
M14 melanoma = tested on: M14 melanoma

## COC(=O)CCNc1c2ccccc2nc2cccc([N+](=O)[O-])c12
MCF7 breast
  TGI: 277 nM
HS 578T breast
  TGI: 12.8 nM and 65.1 nM
SF-539 CNS
  GI50: 2.38 nM and 13.1 nM
  TGI: 11.5 nM and 39.5 nM
T-47D breast
  GI50: 28.3 nM
  TGI: 466 nM
COLO 205 colon
  TGI: 17.1 nM
MOLT-4 leukemia
  GI50: 1.07 nM
  TGI: 117 nM and 12.4 nM
K-562 leukemia
  TGI: 1.52 nM
HOP-62 NSCLC
  GI50: 1.5 nM
  TGI: 6.67 nM
HCC-2998 colon
  GI50: 1040 nM
  TGI: 2330 nM
RXF 393 renal
  TGI: 2.17 nM
NCI/ADR-RES ovarian
  TGI: 68 nM
OVCAR-5 ovarian
  TGI: 108 nM and 27.8 nM
MDA-N
  TGI: 1.36 nM
HL-60(TB) leukemia
  GI50: 2.74 nM
  TGI: 28 nM
MALME-3M melanoma
  TGI: 2.26 nM
LOX IMVI melanoma
  GI50: 3.67 nM and 12.6 nM
  TGI: 17.2 nM and 53 nM
RPMI-8226 leukemia
  TGI: 23.6 nM
UACC-62 melanoma
  GI50: 1.36 nM
  TGI: 4.28 nM and 36.4 nM
SK-MEL-28 melanoma
  GI50: 2.9 nM
  TGI: 11.2 nM and 91.8 nM
SF-295 CNS
  GI50: 2.61 nM
SNB-75 CNS
  GI50: 18.5 nM
  TGI: 72.2 nM
PC-3 prostate
  TGI: 126 nM
UACC-257 melanoma
  GI50: 2.3 nM and 12.2 nM
  TGI: 7.04 nM and 47.6 nM
IGROV1 ovarian
  TGI: 26.1 nM and 90.1 nM
SNB-19 CNS
  GI50: 4.16 nM
  TGI: 217 nM and 49.5 nM
NCI-H23 lung
  GI50: 1260 nM
SK-OV-3 ovarian
  GI50: 40.5 nM
  TGI: 405 nM and 180 nM
UO-31 renal
  GI50: 1.39 nM
  TGI: 4.92 nM and 11.3 nM
KM12 colon
  TGI: 4.51 nM
SN12C renal
  TGI: 16.8 nM
NCI-H522 lung
  GI50: 1.6 nM
  TGI: 4.93 nM
TK-10 renal
  GI50: 3.04 nM
  TGI: 31.2 nM
NCI-H226 lung
  GI50: 3.47 nM
  TGI: 33.3 nM and 37.8 nM
MDA-MB-231 breast
  GI50: 394 nM
  TGI: 1440 nM
MDA-MB-435
  TGI: 1.04 nM
786-0 renal
  TGI: 1.34 nM
A498 renal
  GI50: 18.5 nM
  TGI: 58.5 nM
NCI-H460 lung
  GI50: 13.8 nM
  TGI: 234 nM
HCT-116 colon
  TGI: 1110 nM
OVCAR-4 ovarian
  GI50: 4.54 nM
  TGI: 25.1 nM
A549 NSCLC
  TGI: 132 nM and 726 nM
SK-MEL-2 melanoma
  GI50: 1.04 nM
  TGI: 2.84 nM
CCRF-CEM leukemia
  GI50: 6.82 nM and 15.7 nM
  TGI: 180 nM and 68.9 nM
DU-145 prostate
  TGI: 19600 nM
OVCAR-3 ovarian
  TGI: 3.97 nM
U251 CNS
  TGI: 127 nM and 31.8 nM

## CCOC(=O)CCN1C(=O)C(=O)N(c2ccc(OC)cc2)C1=S
HS 578T breast
  TGI: > 100000 nM
SF-539 CNS
  TGI: > 100000 nM
T-47D breast
  TGI: > 100000 nM
COLO 205 colon
  TGI: > 100000 nM
MOLT-4 leukemia
  TGI: > 100000 nM
K-562 leukemia
  TGI: > 100000 nM
HOP-62 NSCLC
  TGI: > 100000 nM
ACHN renal
  TGI: > 100000 nM
HCC-2998 colon
  TGI: > 100000 nM
RXF 393 renal
  TGI: > 100000 nM
CAKI-1 renal
  TGI: > 100000 nM
NCI/ADR-RES ovarian
  TGI: > 100000 nM
HT29 colon
  TGI: > 100000 nM
HCT-15 colon
  TGI: > 100000 nM
OVCAR-5 ovarian
  TGI: > 100000 nM
MDA-N
  TGI: > 100000 nM
SK-MEL-5 melanoma
  TGI: > 100000 nM
HL-60(TB) leukemia
  TGI: > 100000 nM
MALME-3M melanoma
  TGI: > 100000 nM
LOX IMVI melanoma
  TGI: > 100000 nM
RPMI-8226 leukemia
  TGI: > 100000 nM
UACC-62 melanoma
  TGI: 48500 nM
SK-MEL-28 melanoma
  TGI: > 100000 nM
SF-295 CNS
  TGI: > 100000 nM
SNB-75 CNS
  TGI: > 100000 nM
PC-3 prostate
  TGI: > 100000 nM
UACC-257 melanoma
  TGI: > 100000 nM
IGROV1 ovarian
  TGI: > 100000 nM
SNB-19 CNS
  TGI: > 100000 nM
NCI-H23 lung
  TGI: > 100000 nM
SK-OV-3 ovarian
  TGI: > 100000 nM
UO-31 renal
  TGI: > 100000 nM
KM12 colon
  TGI: > 100000 nM
SW-620 colon
  TGI: > 100000 nM
SN12C renal
  TGI: > 100000 nM
NCI-H522 lung
  TGI: > 100000 nM
TK-10 renal
  TGI: > 100000 nM
SF-268 CNS
  TGI: > 100000 nM
HOP-92 NSCLC
  TGI: > 100000 nM
NCI-H226 lung
  TGI: > 100000 nM
EKVX NSCLC
  TGI: > 100000 nM
MDA-MB-231 breast
  TGI: > 100000 nM
MDA-MB-435
  TGI: > 100000 nM
786-0 renal
  TGI: > 100000 nM
A498 renal
  TGI: > 100000 nM
NCI-H460 lung
  TGI: > 100000 nM
HCT-116 colon
  TGI: > 100000 nM
OVCAR-4 ovarian
  TGI: > 100000 nM
A549 NSCLC
  TGI: > 100000 nM
SK-MEL-2 melanoma
  TGI: > 100000 nM
CCRF-CEM leukemia
  TGI: > 100000 nM
SR leukemia
  TGI: > 100000 nM
OVCAR-8 ovarian
  TGI: > 100000 nM
DU-145 prostate
  TGI: > 100000 nM
U251 CNS
  TGI: > 100000 nM

## C#C[C@@]1(O)CCCC2=CC3(CC[C@]21C)SCCS3
MCF7 breast
  TGI: > 100000 nM
HS 578T breast
  TGI: > 100000 nM
SF-539 CNS
  TGI: > 100000 nM
T-47D breast
  TGI: > 100000 nM
COLO 205 colon
  TGI: > 100000 nM
MOLT-4 leukemia
  TGI: > 100000 nM
K-562 leukemia
  TGI: > 100000 nM
HOP-62 NSCLC
  TGI: > 100000 nM
ACHN renal
  TGI: > 100000 nM
HCC-2998 colon
  TGI: > 100000 nM
RXF 393 renal
  TGI: > 100000 nM
NCI/ADR-RES ovarian
  TGI: > 100000 nM
HT29 colon
  TGI: > 100000 nM
HCT-15 colon
  TGI: > 100000 nM
OVCAR-5 ovarian
  TGI: > 100000 nM
MDA-N
  TGI: > 100000 nM
SK-MEL-5 melanoma
  TGI: > 100000 nM
HL-60(TB) leukemia
  TGI: > 100000 nM
MALME-3M melanoma
  TGI: > 100000 nM
LOX IMVI melanoma
  TGI: > 100000 nM
RPMI-8226 leukemia
  TGI: > 100000 nM
UACC-62 melanoma
  TGI: > 100000 nM
SK-MEL-28 melanoma
  TGI: > 100000 nM
SF-295 CNS
  TGI: > 100000 nM
PC-3 prostate
  TGI: > 100000 nM
UACC-257 melanoma
  TGI: > 100000 nM
IGROV1 ovarian
  TGI: > 100000 nM
SNB-19 CNS
  TGI: > 100000 nM
NCI-H23 lung
  TGI: > 100000 nM
SK-OV-3 ovarian
  TGI: > 100000 nM
UO-31 renal
  TGI: > 100000 nM
KM12 colon
  TGI: > 100000 nM
SW-620 colon
  TGI: > 100000 nM
M14 melanoma
  TGI: > 100000 nM
SN12C renal
  TGI: > 100000 nM
NCI-H522 lung
  TGI: > 100000 nM
TK-10 renal
  TGI: > 100000 nM
SF-268 CNS
  TGI: > 100000 nM
HOP-92 NSCLC
  TGI: > 100000 nM
NCI-H226 lung
  TGI: > 100000 nM
EKVX NSCLC
  TGI: > 100000 nM
MDA-MB-231 breast
  TGI: > 100000 nM
MDA-MB-435
  TGI: > 100000 nM
786-0 renal
  TGI: > 100000 nM
A498 renal
  TGI: > 100000 nM
NCI-H460 lung
  TGI: > 100000 nM
HCT-116 colon
  TGI: > 100000 nM
OVCAR-4 ovarian
  TGI: > 100000 nM
A549 NSCLC
  TGI: > 100000 nM
SK-MEL-2 melanoma
  TGI: > 100000 nM
SR leukemia
  TGI: > 100000 nM
OVCAR-8 ovarian
  TGI: > 100000 nM
DU-145 prostate
  TGI: > 100000 nM
OVCAR-3 ovarian
  TGI: > 100000 nM
U251 CNS
  TGI: > 100000 nM
